Laboratory results: ChEMBL document CHEMBL1201862, “PubChem BioAssay data set” (2004)
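Five concentrations, 48 hours, 96-well plates. Abbreviation: GI50, concentration required for 50% inhibition of growth.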 Calls of active or inactive are those of the source. No stated cut-off is given here; in the data, active = GI50 up to about 1.1 µM and inactive = higher.

Legend:
Experiment in all cases: DTP human tumour cell line panel, 48 h
A549 = test system: A549
HL-60 = test system: HL-60
HOP-92 = test system: HOP-92
LOX IMVI = test system: LOX IMVI
NCI-H460 = test system: NCI-H460
OVCAR-5 = test system: OVCAR-5
RXF 393 = test system: RXF 393
SF-268 = test system: SF-268
SF-295 = test system: SF-295
SK-MEL-5 = test system: SK-MEL-5
SK-OV-3 = test system: SK-OV-3
UACC-62 = test system: UACC-62
UO-31 = test system: UO-31
COLO 205 = test system: COLO 205
HCC 2998 = test system: HCC 2998

Measured: GI50

CCOc1ccc(/N=C\c2cc(OC)c(OC)c(OC)c2)cc1
inactive: A549 > 100 µM | HL-60 > 100 µM | HOP-92 > 100 µM | LOX IMVI > 100 µM | NCI-H460 > 100 µM | OVCAR-5 > 100 µM | RXF 393 2.08 µM | SF-268 > 100 µM | SF-295 > 100 µM | SK-MEL-5 > 100 µM | SK-OV-3 > 100 µM | UACC-62 > 100 µM | UO-31 > 100 µM

COc1ccc(C2S/C(=C\c3cccc([N+](=O)[O-])c3)C(=O)N2NC(=O)Cc2ccccc2)cc1 (stereo not drawn)
inactive: A549 > 100 µM | COLO 205 > 100 µM | HL-60 > 100 µM | HOP-92 > 100 µM | LOX IMVI > 100 µM | NCI-H460 > 100 µM | OVCAR-5 > 100 µM | RXF 393 > 100 µM | SF-268 > 100 µM | SF-295 > 100 µM | SK-MEL-5 > 100 µM | SK-OV-3 > 100 µM | UACC-62 > 100 µM | UO-31 > 100 µM

COc1c(C(=O)O)oc2c(OC)cccc12
inactive: A549 > 100 µM | COLO 205 > 100 µM | HCC 2998 > 100 µM | HL-60 > 100 µM | HOP-92 > 100 µM | LOX IMVI > 100 µM | NCI-H460 > 100 µM | OVCAR-5 > 100 µM | SF-268 > 100 µM | SF-295 > 100 µM | SK-MEL-5 > 100 µM | SK-OV-3 > 100 µM | UACC-62 > 100 µM | UO-31 > 100 µM

C1CCOC2(CCC3(CC2)OCCCCO3)OC1
inactive: A549 > 100 µM | COLO 205 > 100 µM | HCC 2998 > 100 µM | HL-60 > 100 µM | NCI-H460 > 100 µM | RXF 393 > 100 µM | SF-268 > 100 µM | SK-MEL-5 > 100 µM | SK-OV-3 > 100 µM | UACC-62 > 100 µM | UO-31 > 100 µM

CC(=O)O[C@]1(C)OC(=O)[C@@H](CC(C)C)N1[N+](=O)[O-]
inactive: A549 > 100 µM | COLO 205 > 100 µM | HCC 2998 > 100 µM | HL-60 > 100 µM | LOX IMVI > 100 µM | NCI-H460 > 100 µM | OVCAR-5 > 100 µM | RXF 393 60.7 µM | SF-295 > 100 µM | SK-MEL-5 > 100 µM | SK-OV-3 > 100 µM | UACC-62 > 100 µM | UO-31 > 100 µM

COc1ccc(C2Cc3cc(OC)c(OC)c(OC)c3C2)cc1 (stereo not drawn)
inactive: A549 22 µM | COLO 205 66.7 µM | HCC 2998 49.9 µM | LOX IMVI 56.8 µM | NCI-H460 46.6 µM | OVCAR-5 90.4 µM | SF-268 47.1 µM | SF-295 41.1 µM | SK-MEL-5 16.3 µM | SK-OV-3 > 100 µM | UACC-62 66.1 µM | UO-31 21.3 µM

Cc1ccc(C(=O)Nc2ccccc2)cc1/N=N/N(C)C
inactive: A549 > 100 µM | HCC 2998 > 100 µM | HOP-92 > 100 µM | LOX IMVI > 100 µM | NCI-H460 > 100 µM | SF-268 > 100 µM | SF-295 > 100 µM | SK-MEL-5 > 100 µM | UACC-62 > 100 µM | UO-31 > 100 µM

O=C(N/C(=C\c1ccc(F)cc1)c1nc2ccccc2[nH]1)c1ccccc1
inactive: A549 > 100 µM | COLO 205 > 100 µM | HOP-92 97.1 µM | LOX IMVI > 100 µM | NCI-H460 > 100 µM | OVCAR-5 > 100 µM | RXF 393 > 100 µM | SF-268 > 100 µM | SK-MEL-5 > 100 µM | SK-OV-3 > 100 µM | UACC-62 > 100 µM | UO-31 > 100 µM

O=[N+]([O-])c1ccc(C2N3CCCCC3[C@@H]3c4[nH]c5ccccc5c4CCN23)cc1 (stereo partly drawn)
inactive: A549 19.5 µM | COLO 205 17.6 µM | HL-60 80.2 µM | HOP-92 44.6 µM | NCI-H460 19.2 µM | OVCAR-5 25.9 µM | RXF 393 4.59 µM | SF-268 15.4 µM | SF-295 26.1 µM | SK-MEL-5 15 µM | SK-OV-3 22.6 µM | UACC-62 5.22 µM | UO-31 16.1 µM

CC(=O)Nc1ccc(-c2nnc(SCC(=O)Nc3ccccc3[N+](=O)[O-])o2)cc1
inactive: A549 > 100 µM | COLO 205 > 100 µM | HL-60 52 µM | HOP-92 > 100 µM | LOX IMVI > 100 µM | NCI-H460 > 100 µM | OVCAR-5 > 100 µM | RXF 393 > 100 µM | SF-268 > 100 µM | SF-295 98.6 µM | SK-MEL-5 > 100 µM | SK-OV-3 > 100 µM | UACC-62 > 100 µM | UO-31 81.3 µM

COc1ccc(C(=O)C(C(=O)C(=O)Nc2nccs2)c2ccc(OC)cc2)cc1 (stereo not drawn)
inactive: A549 > 100 µM | COLO 205 > 100 µM | HOP-92 > 100 µM | LOX IMVI > 100 µM | NCI-H460 > 100 µM | OVCAR-5 > 100 µM | RXF 393 80.9 µM | SF-268 > 100 µM | SK-MEL-5 > 100 µM | SK-OV-3 > 100 µM | UACC-62 > 100 µM | UO-31 > 100 µM
